Test results as given in patent publication US20220339285A1, “DISSACHARIDE FORMULATIONS FOR CONTROLLED DRUG RELEASE” (TECHNICAL UNIVERSITY OF DENMARK, priority 2019, published 2022).
Each block holds one compound with its values, some of them ahead of it.

Key:
[1] = Tested solubility of APIs in carbohydrate ester gels (Example 21); details: in the gel formulations listed for each API in Table 8; maximal solubility may be higher than tested
Procedure: Compositions are given in weight percent (or weight ratio) and each compound is weighed into one vial. The mixture is placed in an ultrasonication bath at 70-80° C. for 1-2 hours and occasionally vortexed to generate homogenous solutions that is subsequently stored at 4° C. until further use. Afterwards, all active pharmaceutical ingredients (APIs) are incorporated into the gels proportionally by adding gel on top of freeze-dried APIs or combinations of freeze-dried APIs. The gel is subjected to magnetic stirring at 40-50° C. until the API or combination of APIs is completely dissolved. The gel-API mixture is transferred and stored in sealed vials at room temperature or at 4° C. Certain gel-API mixtures may be stored at −20° C.

[2] = Solubility and integrity of CLA-1 and CLA-8 in SuBen and LOIB gels (Example 22); type: physicochemical; details: weight percentage
Procedure: HPLC assay: Samples were analyzed using a Shimadzu Nexera-i instrument. […] Chromatographic separation was achieved using a gradient of 40 to 100% phase B in 10 min. Ultraviolet detection at 280 nm was used to identify the CT contrast agents. Gel samples were prepared by dilution of 50 μL gel in 1 mL MeCN, which were then diluted 10-fold in MeCN.

[3] = In vitro release of DOX base from SuBen and LOIB gels, fluorescence (Example 33); type: physicochemical; details: 7 days at 37° C
Procedure: The vials were incubated at 37° C. After 7 days, 1 mL of PBS was taken and analysed by fluorescence spectroscopy.
Fluorescence spectroscopy: Fluorescence measurements were taken by a Tecan fluorescence microplate reader using 96-well, transparent Nunc plates. Sample volume was 200 μL.

[4] = In vitro release of RepSox and Galunisertib from LOIB based gels into PBS (Example 14); details: for cumulative release: after 14 days, 8 mg/gram in 82.5 (% w/w) LOIB gel, 100 μL in 2 ml PBS
Procedure: Following, 100 μL of each gel were injected in duplicates into 2 ml of PBS.

[5] = Experimentally obtained drug solubilities in gels; type: physicochemical
Text: Experimentally obtained drug solubilities are given in the table (all percentages are weight %).

[6] = In vitro release of Gardiquimod and Resiquimod from SuBen gels with different co-solvents, HPLC (Example 28); type: physicochemical; details: 49 days; for in vitro release of Gardiquimod: 1.2 mg/g, PBS 37° C
Procedure: SuBen:GTO:EtOH (60:25:15 (% w/w)) and SuBen:Lipiodol:EtOH (60:25:15 (% w/w)) were prepared by simple mixing and sonication (80° C., 90-120 min) as described in example 19. […] SuBen:GTO:EtOH:PLA (60:25:15:0.5 (% w/w)), SuBen:Ethyl-palmitate:EtOH (60:25:15 (% w/w)), and SuBen:Ethyl-oleate:EtOH (60:25:15 (% w/w)) were prepared by simple mixing and sonication (80° C., 90-120 min) as described in example 19. […] The vials are closed with lids and are incubated at 37° C. At each sampling point, take 1 mL of buffer and place it inside an Eppendorf tube. Then add 1 mL of fresh buffer to replace the taken sample. The samples are analyzed by HPLC. […] For both compounds, the flowrate was 1 mL/min and the column temperature was 40° C.

[7] = In vivo release of TGFb inhibitors from intratumoral gel depots (Example 32); details: 8 mg/g, 50 μL intratumoral, CT26 tumors, 7 days
Procedure: Animal handling: For each formulation 50 μL of gel was injected intratumorally in female Balb/c mice with CT26 tumors (Initial tumor volume of approximately 200 mm^3). The mice were sacrificed at different time points and gel samples were collected. The gels were stored at 4° C. until analysis. For each gel, four mice were sacrificed at each timepoint.
Samples were heated to 50° C. and stirred at 600 rpm to promote dissolution. The samples were subsequently filtered through 0.45 μm pore, nylon syringe filters.
HPLC method: Samples were analyzed on a Shimadzu Nexera-i HPLC. […] The solvent system consisted of mobile phase A (5% MeCN, 0.1% TFA in water) and mobile phase B (0.1% TFA in MeCN). Chromatographic separation was achieved using an optimized gradient.

[8] = Co-solubilization of R848 and RepSox in LOIB gel (Example 15); type: physicochemical; details: with 2.4 mg R848
Procedure: The mixture was solubilized using a magnetic stirring for 2 hours at 40-50° C. under continuous visual inspection.

[9] = gel composition e.g LOIB 82.5%, SuBen 60%

Tested solubility in gels [1]: 8 mg/g gel | solubilized in LOIB-based gel formulations [4]: ≥ 8 mg/gram | cumulative release [4]: 27% | Solubility [5, 9]: >8 mg/g gel
Structure (SMILES): Cc1cccc(-c2nn3c(c2-c2ccnc4ccc(C(N)=O)cc24)CCC3)n1 [Galunisertib]

reduction of Gardiquimod release on substitution of GTO with Lipiodol [6]: 6 fold | in vitro release of Gardiquimod ([6]; SuBen:GTO:EtOH (60:25:15) gel): 52.5% | in vitro release of Gardiquimod ([6]; SuBen:Lipiodol:EtOH (60:25:15) gel): 8.4% | Solubility [5, 9]: >1.5 mg/g gel
Structure (SMILES): CCNCc1nc2c(N)nc3ccccc3c2n1CC(C)(C)O [Gardiquimod]

Solubility ([5]; gel composition e.g SuBen 60%): >4.8 mg/g gel
Structure (SMILES): CC(C)Cn1cnc2c(N)nc3ccccc3c21 [Imiquimod]

Solubility [5, 9]: >10 mg/g gel
Structure (SMILES): CCOCc1nc2c(N)nc3ccccc3c2n1CC(C)(C)O [Resiquimod (R848), Resiquimod]

Solubility ([5]; gel composition e.g SuBen 60%): >1 mg/g gel
Structure (SMILES): CC1(N)CCN(c2cnc(-c3cccc(Cl)c3Cl)c(N)n2)CC1 [SHP099]

Further lines, the compound ahead of its results:

Structure (SMILES): COc1ccc(CNC(=O)Nc2ncc([N+](=O)[O-])s2)cc1 [AR-A014418]
Tested solubility in gels [1]: 1 mg/g gel

Structure (SMILES): O=C(OCC1OC(OC(=O)c2ccc(I)cc2)C(OC(=O)c2ccc(I)cc2)[C@@H](OC(=O)c2ccc(I)cc2)[C@@H]1O[C@@H]1OC(COC(=O)c2ccc(I)cc2)[C@H](OC(=O)c2ccc(I)cc2)[C@H](OC(=O)c2ccc(I)cc2)C1OC(=O)c1ccc(I)cc1)c1ccc(I)cc1 (stereo partly drawn) [CLA-8, α,β Lactose octa para-iodobenzoate]
CLA-8 completely solubilized in LOIB gels [2]: up to 10% | CLA-8 completely solubilized in SuBen gels [2]: up to 20%

Structure (SMILES): COc1cccc2c1C(=O)c1c(O)c3c(c(O)c1C2=O)C[C@@](O)(C(=O)CO)C[C@@H]3O[C@H]1C[C@H](N)[C@H](O)[C@H](C)O1 [DOX base, doxorubicin]
release from gels into PBS [3]: released from the gels

Structure (SMILES): Cc1cccc(-c2[nH]ncc2-c2ccc3ncccc3n2)n1 [RepSox]
in vivo release from gel depot (ranking) [7]: fastest release | dissolved together with R848 in LOIB:GTO:EtOH (82.5:7.5:10) gel [8]: 8 mg/g | cumulative release [4]: around 40% | Solubility [5, 9]: >8 mg/g gel

Structure (SMILES): Fc1ccc(Cl)cc1-c1nc(Nc2ccncc2)c2nccnc2n1 [SD-208]
Solubility ([5]; gel composition e.g SuBen 60%): >8 mg/g gel | Solubility ([5]; gel composition e.g SuBen:LOIB 35%/35%): >8 mg/g gel
